The target in assay [1] is T1, Human tissue plasminogen activator (tPA) (Two chains, Sigma) (Homo sapiens, UniProt P00750).
T1 construct: purchased Sigma
Nature of the assay: In vitro chromogenic assay for tPA (S2288 cleavage). The assay is classed as biochemical. To be noted: 10 nM tPA; pH 7.5; ambient temperature; substrate concentration stated equal to Km. How it is done: (§1) The activities were determined as an initial rate of cleavage of the peptide p-nitroanilide by the enzyme. The cleavage product, p-nitroaniline, absorbs at 405 nm with a molar extinction coefficient of 9920 M^-1 cm^-1.
(§2) 50 mM TrisHCl, 150 mM NaCl, 2.5 mM CaCl2, and 0.1% polyethylene glycol 6000, pH 7.5.
3. Human tissue plasminogen activator (tPA) (Two chains, Sigma) stock solution: 1 mg/mL, stored at -80° C. (working solution (2×): 1361 ng/mL in assay buffer, prepare prior to use).
3. S2288 (tPA assay) stock solution: 10 mM in deionized H2 O, stored at 4° C. (working solution (4×): 1484 μM in assay buffer).
Assays were performed in 96-well microtiter plates in a total volume of 200 μl. […] Concentrations of the standard inhibitor compound in the assay were from 5 μM to 0.021 μM in 1 to 3 dilution. Concentration of the test compounds in the assay typically were from 10 μM to 0.041 μM in 1 to 3 dilution. […]
(§3) The enzyme kinetics were measured at 405 nm at 10 seconds intervals for five minutes in a THERMOmax plate reader at ambient temperature.
(§4) Enzyme rates were calculated as mOD/min based on the first two minutes readings. The IC50 values were determined by fitting the data to the log-logit equation (linear) or the Morrison equation (non-linear) with an EXCEL spread-sheet. […]

Assay [2] concerns the target T2, Human thrombin (Homo sapiens, UniProt P00734).
T2 construct: Human thrombin stock solution; purchased Enzyme Research Lab
Nature of the assay: In vitro chromogenic assay for thrombin (S2302 cleavage). The following applies: 20 nM thrombin; pH 7.5; ambient temperature; substrate concentration stated equal to Km. The assay is classed as biochemical. How it is done: as §1, §2
2. Human thrombin stock solution: Stored at -80° C. (working solution (2×): 1200 ng/mL or 40 nM in assay buffer, prepare prior to use).
2. S2302 (Thrombin assay) stock solution: 10 mM in deionized H2 O, stored at 4° C. (working solution (4×): 1200 μM in assay buffer).
Assays were performed in 96-well microtiter plates in a total volume of 200 μl. […] Concentrations of the standard inhibitor compound in the assay were from 5 μM to 0.021 μM in 1 to 3 dilution. Concentration of the test compounds in the assay typically were from 10 μM to 0.041 μM in 1 to 3 dilution. For potent test compounds, the concentrations used in the factor Xa assay were further diluted 100 fold (100 nM to 0.41 nM) or 1000 fold (10 nM to 0.041 nM). […]
as §3, §4

This note sets out measurements from patent US6008234A, “Benzamidine derivatives substituted by cyclic amino acid and cyclic hydroxy acid derivatives and their use as anti-coagulants” (Berlex Laboratories, Inc., priority 1997, dated 1999).

Non-standard residues stand in square brackets, D forms with d. Residues, ends and D or L forms follow the SMILES beside them. *: point of attachment. pNA = O=[N+]([O-])c1ccc(N*)cc1

T1 sequence (P00750 311-562 limits assumed): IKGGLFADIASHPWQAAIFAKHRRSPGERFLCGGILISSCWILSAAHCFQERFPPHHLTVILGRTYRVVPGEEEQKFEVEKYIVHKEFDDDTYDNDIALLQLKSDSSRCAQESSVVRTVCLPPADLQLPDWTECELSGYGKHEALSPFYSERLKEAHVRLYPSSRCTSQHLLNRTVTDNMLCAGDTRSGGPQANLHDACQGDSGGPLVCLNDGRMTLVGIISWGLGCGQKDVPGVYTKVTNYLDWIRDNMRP
T1 sequence (P00750 36-310 limits assumed): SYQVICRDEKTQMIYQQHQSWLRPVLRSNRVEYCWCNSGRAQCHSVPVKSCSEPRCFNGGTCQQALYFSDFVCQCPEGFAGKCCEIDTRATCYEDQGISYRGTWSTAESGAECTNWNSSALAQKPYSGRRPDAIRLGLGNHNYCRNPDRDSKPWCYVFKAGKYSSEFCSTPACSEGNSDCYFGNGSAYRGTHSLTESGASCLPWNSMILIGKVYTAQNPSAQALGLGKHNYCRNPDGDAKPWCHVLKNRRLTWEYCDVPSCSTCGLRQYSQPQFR

Broadly, the Km is the substrate concentration at which the rate is half of its maximum. As for `CC[C@@H](C)[C@@H](N)C(=O)N1CCC[C@H]1C(=O)N[C@@H](CCCN=C(N)N)C(=O)Nc1ccc([N+](=O)[O-])cc1` [Example S2288] (H-[dI]-Pro-Arg-pNA), the Km in assay [1] was determined as 371 µM.

Take `N=C(N)NCCC[C@H](NC(=O)[C@H](Cc1ccccc1)NC(=O)[C@H]1CCCN1)C(=O)Nc1ccc([N+](=O)[O-])cc1` [Example S2302] (H-[dP]-Phe-Arg-pNA): the Km in assay [2] amounted to 300 µM.
